Source: ChEMBL document CHEMBL1157141, “Prediction of intestinal absorption and metabolism of pharmacologically active flavones and flavanones” (Bioorg Med Chem, 2008)

What was measured:
[1] = Stability in hank's balanced salt solution at 15 uM after 180 mins; assay type: physicochemical; details: read-out: Stability
[2] = Stability in hank's balanced salt solution at 15 uM after 20 mins; assay type: physicochemical; details: read-out: Stability
[3] = Stability in hank's balanced salt solution at 15 uM after 24 hrs; assay type: physicochemical; details: read-out: Stability
[4] = Apparent permeability from apical to basolateral side in human Caco-2 cells assessed as drug recovery; assay type: ADME, cell-based; details: read-out: Activity
[5] = Stability in hank's balanced salt solution at 15 uM after 120 mins; assay type: physicochemical; details: read-out: Stability
[6] = Apparent permeability from basolateral to apical side in human Caco-2 cells assessed as drug recovery; assay type: ADME, cell-based; details: read-out: Activity
[7] = Apparent permeability across PAMPA membrane; assay type: ADME; details: read-out: permeability
[8] = Stability in hank's balanced salt solution at 15 uM after 60 mins; assay type: physicochemical; details: read-out: Stability
[9] = Apparent permeability from basolateral to apical side in human Caco-2 cells; assay type: ADME, cell-based; details: read-out: permeability
[10] = Apparent permeability from apical to basolateral side in human Caco-2 cells; assay type: ADME, cell-based; details: read-out: permeability
[11] = Apparent permeability across PAMPA membrane assessed as drug recovery; assay type: ADME; details: read-out: Activity
[12] = Ratio of permeability from basolateral to apical side over apical to basolateral side in human Caco-2 cells; assay type: ADME, cell-based

Row | SMILES | remaining at 3 h, 15 µM [1] [%] | remaining at 20 min, 15 µM [2] [%] | remaining at 24 h, 15 µM [3] [%] | recovery [4] [%] | remaining at 2 h, 15 µM [5] [%] | recovery [6] [%] | Papp [7] [×10⁻⁶ cm/s] | remaining at 1 h, 15 µM [8] [%] | Papp B→A [9] [×10⁻⁶ cm/s] | Papp A→B [10] [×10⁻⁶ cm/s] | recovery [11] [%] | efflux ratio [12]
1 | O=C1C[C@@H](c2ccc(O)cc2)Oc2cc(O)cc(O)c21 [NARINGENIN] | 91.2 |  | 79.9 | 54.4 | 100 | 93 | 25.7 | 99.4 | 51.4 | 37.8 | 87 | 
2 | COc1ccc(-c2cc(=O)c3c(O)cc(O)cc3o2)cc1O [DIOSMETIN] | 98.4 | 100 | 50.9 | 59.1 | 101 | 66.8 | 76.1 | 96.5 | 12.4 | 76.2 | 82 | 0.2
3 | COc1ccc([C@@H]2CC(=O)c3c(O)cc(O)cc3O2)cc1O [HESPERETIN] | 90.8 | 94.5 | 80 | 34.1 | 91.1 | 70.1 | 35.7 | 99.9 | 27 | 47.1 | 84 | 0.6

Next, values leading:

Row | remaining at 3 h, 15 µM [1] [%] | remaining at 20 min, 15 µM [2] [%] | remaining at 24 h, 15 µM [3] [%] | recovery [4] [%] | remaining at 2 h, 15 µM [5] [%] | recovery [6] [%] | Papp [7] [×10⁻⁶ cm/s] | remaining at 1 h, 15 µM [8] [%] | Papp B→A [9] [×10⁻⁶ cm/s] | Papp A→B [10] [×10⁻⁶ cm/s] | recovery [11] [%] | efflux ratio [12] | SMILES
4 | 90.4 | 98.3 | 88.5 | 85.7 | 92.2 | 88.4 |  |  |  |  |  |  | C[C@@H]1O[C@@H](O[C@H]2[C@H](Oc3cc(O)c4c(c3)O[C@H](c3ccc(O)cc3)CC4=O)O[C@H](CO)[C@@H](O)[C@@H]2O)[C@H](O)[C@H](O)[C@H]1O [NARINGIN]
5 | 86.3 | 99.8 | 84.9 | 76.9 | 87.9 | 80.2 |  |  |  |  |  |  | COc1ccc([C@@H]2CC(=O)c3c(O)cc(O[C@@H]4O[C@H](CO[C@@H]5O[C@@H](C)[C@H](O)[C@@H](O)[C@H]5O)[C@@H](O)[C@H](O)[C@H]4O)cc3O2)cc1O [HESPERIDIN]
6 | 78.4 | 103 | 0 | 61.9 | 88.6 | 68.9 |  |  |  |  |  |  | COc1ccc(-c2cc(=O)c3c(O)cc(O[C@@H]4O[C@H](CO[C@@H]5O[C@@H](C)[C@H](O)[C@@H](O)[C@H]5O)[C@@H](O)[C@H](O)[C@H]4O)cc3o2)cc1O [DIOSMIN]
